# Experimental data from ChEMBL document CHEMBL1201862, “PubChem BioAssay data set” (2004).
# Calls of active or inactive are those of the source. For most assays here, no stated cut-off is given here; in the data, actives have a measured EC50 and inactives only a lower limit.
# Tests used:
# [1] = NIH-3T3 fibroblast cytotoxicity, dose response, cytotoxicity control, cell-based, fluorescence, Alamar Blue, secondary assay (AID 2327); assay type: functional;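 further: NIH-3T3 mouse fibroblasts cultured with fluconazole at 8 µg/mL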
# [2] = C. albicans growth with fluconazole, confirmation, fluorescence, retest (AID 2467); assay type: functional, cell-based
# [3] = test system: H9c2; assay: cells; assay type: functional, cell-based; conditions: Rattus norvegicus, H9c2, Myocardium;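 further: confirmatory concentration-response retest of ultra-high-throughput screening hits for modulation of myocardial damage; cell death induced by hydrogen peroxide oxidative stress; compound pretreatment for 60 min then peroxide exposure for 2 h; potency is for protecting the cells against peroxide damage rather than for killing them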
# [4] = molecular target: Luciferin 4-monooxygenase (Photinus pyralis, UniProt P08659); assay: firefly luciferase enzyme inhibitors, dose response, biochemical, luminescence (AID 1891)
# [5] = Luminescence Cell-Based Dose Confirmation HTS to Identify Inhibitors of Platelet Dense Granule Release. [Related pubchem assays: 1663 (Primary HTS), 1678 (Summary of Project)]; assay type: functional
# [6] = Luminescence Cell-Based Dose Retest to Confirm Inhibitors of Cancer Stem Cells. [Related pubchem assays (depositor defined):AID2717, AID2721]; assay type: functional; conditions: Homo sapiens
# [7] = inhibitors of intracellular T. cruzi replication, confirmation, NIH3T3 host cells, beta-gal luminescence (AID 2044); assay type: functional, cell-based;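 further: intracellular parasites grown in NIH/3T3 mouse fibroblasts as host cells; luminescent beta-galactosidase reporter signal from transgenic T. cruzi replicating inside host cells; inhibitors lower the luminescence signal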
# [8] = cytotoxicity toward NIH3T3 fibroblasts, dose response, counter-screen, cell-based, ATP luminescence, mouse fibroblasts (AID 2010); assay type: functional;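 further: cells exposed to compound for about 90 hours before reading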
# [9] = molecular target: Large T antigen (Simian virus 40, UniProt P03070); assay type: functional, Betapolyomavirus macacae;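 further: Confirmatory-stage PubChem screen for compounds that inhibit SV40 T antigen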
# [10] = molecular target: Paired box protein Pax-8 (Homo sapiens, UniProt Q06710); assay: inhibitors of PAX8-driven TPO luciferase reporter, dose response, RMG-I cells, cherry-pick (AID 687027); assay type: functional, cell-based;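 further: luciferase reporter driven by Pax8 target thyroperoxidase promoter measured by SteadyGlo luminescence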
# [11] = P. falciparum Dd2 growth inhibitors, dose response, SYBR Green, cherry-picked samples (AID 1159567); assay type: functional, cell-based
# [12] = test system: BJ; assay: cytotoxicity toward BJ-TERT-LT-ST fibroblasts, dose response, cell-based, RAS-independent, luminescence (AID 1935); assay type: functional; conditions: Homo sapiens;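 further: BJ fibroblasts immortalized with TERT plus LT and ST oncogenes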
# [13] = test system: BJ; assay: cytotoxicity toward BJ-TERT fibroblasts, dose response, cell-based, RAS-independent, luminescence (AID 1933); assay type: functional; conditions: Homo sapiens
# [14] = test system: BJ; assay: cells; assay type: functional, cell-based; conditions: Homo sapiens
# [15] = cytotoxicity toward DRD oncogenic fibroblasts, dose response, cell-based, non-viral oncogenic, luminescence (AID 1934); assay type: functional; conditions: Homo sapiens
# [16] = test system: INS1; assay: beta cell apoptosis inhibitors, cytokine rescue, dose response, luminescence, retest (AID 449756); assay type: functional, cell-based; conditions: Rattus norvegicus;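 further: cell death triggered by IL-1 beta plus TNF-alpha plus IFN-gamma mixture; protective hits raise ATP signal compared with cytokine alone wells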
# [17] = molecular target: Heat shock protein HSP 90-alpha (Homo sapiens, UniProt P07900); assay type: functional, organism-based
# [18] = molecular target: T1, Protein skinhead-1 (Caenorhabditis elegans, UniProt P34707); assay type: functional
# T1 sequence (P34707 whole entry): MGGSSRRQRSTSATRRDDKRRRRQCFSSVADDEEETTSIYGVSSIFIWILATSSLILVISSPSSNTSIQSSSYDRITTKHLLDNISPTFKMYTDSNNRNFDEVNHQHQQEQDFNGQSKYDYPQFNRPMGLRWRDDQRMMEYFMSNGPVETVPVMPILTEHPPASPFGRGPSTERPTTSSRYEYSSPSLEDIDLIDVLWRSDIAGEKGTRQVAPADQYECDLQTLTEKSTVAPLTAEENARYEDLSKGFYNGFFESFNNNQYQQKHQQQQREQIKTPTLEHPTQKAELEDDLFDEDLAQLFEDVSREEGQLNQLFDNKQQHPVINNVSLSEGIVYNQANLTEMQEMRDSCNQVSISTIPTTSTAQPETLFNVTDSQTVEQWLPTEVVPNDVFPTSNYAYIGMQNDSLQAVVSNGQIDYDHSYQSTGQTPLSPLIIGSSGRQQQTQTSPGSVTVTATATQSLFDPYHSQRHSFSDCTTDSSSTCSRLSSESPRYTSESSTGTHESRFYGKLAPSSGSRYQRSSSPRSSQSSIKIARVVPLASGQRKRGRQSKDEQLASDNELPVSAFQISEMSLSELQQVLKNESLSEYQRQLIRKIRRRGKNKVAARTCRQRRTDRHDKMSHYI
# Chain of Luciferin 4-monooxygenase (P08659 whole entry): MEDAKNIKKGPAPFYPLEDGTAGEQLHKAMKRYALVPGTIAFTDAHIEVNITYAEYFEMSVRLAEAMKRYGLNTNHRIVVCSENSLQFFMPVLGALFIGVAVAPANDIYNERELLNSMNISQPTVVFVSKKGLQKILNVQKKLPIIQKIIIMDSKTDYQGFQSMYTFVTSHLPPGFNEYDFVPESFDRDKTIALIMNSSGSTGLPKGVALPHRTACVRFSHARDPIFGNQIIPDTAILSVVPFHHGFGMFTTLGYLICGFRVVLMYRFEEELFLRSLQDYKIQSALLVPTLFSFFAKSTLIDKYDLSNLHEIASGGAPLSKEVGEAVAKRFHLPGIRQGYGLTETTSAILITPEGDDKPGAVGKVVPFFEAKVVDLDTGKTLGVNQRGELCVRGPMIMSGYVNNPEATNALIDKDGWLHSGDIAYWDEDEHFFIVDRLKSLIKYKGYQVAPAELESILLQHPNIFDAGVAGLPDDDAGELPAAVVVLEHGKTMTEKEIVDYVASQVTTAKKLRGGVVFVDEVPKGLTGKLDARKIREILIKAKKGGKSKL
# Chain of Paired box protein Pax-8 (Q06710 whole entry): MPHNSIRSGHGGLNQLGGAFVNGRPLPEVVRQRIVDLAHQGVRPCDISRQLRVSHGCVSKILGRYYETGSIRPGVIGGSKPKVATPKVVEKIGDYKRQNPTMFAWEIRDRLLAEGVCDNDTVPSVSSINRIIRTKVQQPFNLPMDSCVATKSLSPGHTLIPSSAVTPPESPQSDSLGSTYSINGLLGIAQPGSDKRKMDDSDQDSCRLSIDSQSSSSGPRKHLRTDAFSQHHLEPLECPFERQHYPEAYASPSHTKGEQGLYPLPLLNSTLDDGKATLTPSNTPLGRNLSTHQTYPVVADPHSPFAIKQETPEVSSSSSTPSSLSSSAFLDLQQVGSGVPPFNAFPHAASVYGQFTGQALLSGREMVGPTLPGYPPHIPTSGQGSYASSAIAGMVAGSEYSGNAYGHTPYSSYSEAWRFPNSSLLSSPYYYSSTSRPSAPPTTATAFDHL
# Chain of Large T antigen (P03070 whole entry): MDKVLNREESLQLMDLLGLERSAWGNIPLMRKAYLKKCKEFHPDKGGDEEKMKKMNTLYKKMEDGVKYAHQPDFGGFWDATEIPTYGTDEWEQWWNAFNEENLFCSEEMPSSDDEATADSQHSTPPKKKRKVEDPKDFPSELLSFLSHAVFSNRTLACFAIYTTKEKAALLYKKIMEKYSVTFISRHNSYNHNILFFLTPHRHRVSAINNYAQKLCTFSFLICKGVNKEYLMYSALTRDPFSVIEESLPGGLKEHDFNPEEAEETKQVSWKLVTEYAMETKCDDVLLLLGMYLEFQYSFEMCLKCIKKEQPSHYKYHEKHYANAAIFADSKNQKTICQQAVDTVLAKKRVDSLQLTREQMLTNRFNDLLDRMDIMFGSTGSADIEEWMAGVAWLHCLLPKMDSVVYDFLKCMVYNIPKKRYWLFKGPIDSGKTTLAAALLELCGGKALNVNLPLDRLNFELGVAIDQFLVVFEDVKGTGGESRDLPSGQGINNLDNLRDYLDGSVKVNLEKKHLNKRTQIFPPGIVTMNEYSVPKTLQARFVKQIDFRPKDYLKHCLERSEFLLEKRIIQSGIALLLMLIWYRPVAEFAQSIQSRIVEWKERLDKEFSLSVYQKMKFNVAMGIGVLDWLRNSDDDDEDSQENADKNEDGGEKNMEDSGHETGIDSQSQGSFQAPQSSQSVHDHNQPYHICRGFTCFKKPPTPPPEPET
smiles,measurement,setting,value
O=C(CCS(=O)(=O)c1ccccc1)Nc1ncc([N+](=O)[O-])s1,EC50,[1],> 150 µM (inactive)
same,EC50,[2],0.746 µM (active)
COC(=O)c1ccc2c(O)nc(COC(=O)c3[nH]c(C)c(C(C)=O)c3C)nc2c1,IC50,[3],7.05 µM (active)
O=C(N1CCOCC1)N1CCN(S(=O)(=O)N2CCOCC2)CC1,EC50,[4],> 112 µM (not active)
same,EC50,[5],> 112 µM (not active)
O=C(NCc1cccnc1)C(=O)NCC1OCCN1S(=O)(=O)c1ccccc1 (stereo not drawn),EC50,[4],> 112 µM (not active)
same,EC50,[5],> 112 µM (not active)
COc1ccc(-c2nnc3sc(-c4ccco4)nn23)cc1OC,IC50,[3],> 79 µM (inactive)
Cc1ccc2c(c1)C1CN(C)CCC1N2Sc1ccccc1[N+](=O)[O-] (stereo not drawn),EC50,[1],> 150 µM (inactive)
same,EC50,[2],> 38 µM (not active)
O=C(CCSc1ccc(Cl)cc1)N1CCN(c2ccc(O)cc2)CC1,AC50,[6],2.51 µM (active)
same,EC50,[7],0.169 µM (active)
same,EC50,[8],6.9 µM (active)
same,IC50,[9],6.74 µM (active)
CC1=CS/C(=C(/C#N)C(=O)N2CCOCC2)N1c1ccccc1,EC50,[4],> 112 µM (not active)
same,EC50,[5],> 112 µM (not active)
O=C(Cn1c(S)nc2ccccc21)c1ccccc1,EC50,[4],> 112 µM (not active)
same,EC50,[5],> 112 µM (not active)
C=C(C)C(=O)OC1(C(F)(F)F)Oc2cc(C)ccc2NC1=O (stereo not drawn),AC50,[10],9.05 µM (active)
COc1ccccc1NC(=O)c1c(Nc2ccccc2F)sc(C(=O)Nc2cccc(Cl)c2)c1N,AC50,[6],1.16 µM (active)
Cc1ccc(S(=O)(=O)Nc2ccc3c(c2)C(=O)N([C@@H](C)CO)C[C@@H](C)[C@H](CN(C)Cc2ccc(Cl)c(Cl)c2)OCCCC[C@@H](C)O3)cc1,AC50,[10],7.92 µM (active)
COc1ccc(-c2cc(C(=O)N(C)Cc3nc(O)c4ccccc4n3)c3ccccc3n2)cc1OC,IC50,[3],> 79 µM (inactive)
O=C1Cc2ccccc2Sc2ccc(Cl)cc21,EC50,[4],> 112 µM (not active)
same,EC50,[5],> 112 µM (not active)
Cc1ccc(/N=C/c2cc(Cl)cc(Cl)c2O)nc1,IC50,[3],13.5 µM (active)
COc1ccc(C#Cc2ccc3c(c2)[C@H]2[C@H](CCN2C(=O)c2ccccn2)[C@H](CO)N3)cc1,AC50,[11],5.61 µM (active)
CCOc1ccccc1CNS(=O)(=O)c1c[nH]cn1,EC50,[4],> 112 µM (not active)
same,EC50,[5],> 112 µM (not active)
COC(=O)c1cnn2c(O)c(Cc3ccc(F)cc3Cl)c(C)nc12,EC50,[1],> 150 µM (inactive)
same,EC50,[2],1.33 µM (active)
CCN=C(S)NNC(=O)c1cc(-c2ccc(OC)cc2)nc2ccccc12,EC50,[4],0.107 µM (active)
same,EC50,[1],> 160 µM (inactive)
same,EC50,[12],> 150 µM (not active)
same,EC50,[13],9.62 µM (active)
same,EC50,[14],14 µM (active)
same,EC50,[15],11 µM (active)
same,EC50,[5],1.38 µM (active)
same,EC50,[2],> 38 µM (not active)
CC1(C)C(=O)C(c2nc3ccccc3[nH]2)=C(N)N1c1ccccc1,EC50,[1],58.9 µM (active)
same,EC50,[2],5.1 µM (active)
C/C(N)=C(/C#N)C(=O)COC(=O)c1cc(-c2ccc(C)cc2)nc2ccccc12,AC50,[16],> 260 µM (inactive)
same,AC50,[6],17.4 µM (active)
Cc1ccc(C(=O)NC(=S)NNC(=O)c2ccccc2[N+](=O)[O-])cc1,EC50,[1],18.8 µM (inconclusive)
same,EC50,[2],> 38 µM (not active)
CCn1cc(C(=O)N[C@@H](CCSC)C(=O)NCCCn2ccnc2)c(=O)c2cc3c(cc21)OCO3,EC50,[4],> 112 µM (not active)
same,EC50,[5],> 112 µM (not active)
Cc1cc([N+](=O)[O-])ccc1NC(=O)CSc1nncn1-c1cccnc1,EC50,[4],> 112 µM (not active)
same,EC50,[5],> 112 µM (not active)
C[C@@H](C(=O)N(C)C[C@@H]1OCc2ccccc2-c2c(n(C)c3ccccc23)C(=O)N([C@@H](C)CO)C[C@@H]1C)c1ccccc1,AC50,[11],6.3 µM (active)
Cc1ccc(O)c(-c2cc(-c3cccc(F)c3)[nH]n2)c1,AC50,[17],25.4 µM (active)
same,IC50,[18],> 100 µM (inactive)
COc1ccc(CCNC(=O)c2cc(S(=O)(=O)N3CCOCC3)cn2C)cc1OC,EC50,[4],> 112 µM (not active)
same,EC50,[5],> 112 µM (not active)
